US20260256792A1, “TREATMENT OF CHRONIC SPONTANEOUS URTICARIA BY ADMINISTERING (R)-2-[3-[4-AMINO-3-(2-FLUORO-4-PHENOXY-PHENYL)PYRAZOLO[3,4-D]PYRIMIDIN-1-YL]PIPERIDINE-1-CARBONYL]-4-METHYL-4-[4-(OXETAN-3-YL)PIPERAZIN-1-YL]PENT-2-ENENITRILE” (priority 2023, published 2026)

Tested on: moderate-to-severe chronic spontaneous urticaria (CSU)
Assay: Phase 2 CSU study: itch severity score over 7 days (ISS7)
Format: in vivo, human
Source text: The study comprises a 12 week, randomized, double-blind, placebo-controlled, multi-center, dose-ranging efficacy and safety phase, followed by a 40 week open label extension (OLE) phase (see FIG. 1). The study consists of three phases and an optional OLE phase. […] Clinically, CSU is characterized by the spontaneous and recurrent appearance of pruritic hives. The proposed primary endpoints were the UAS7 at Week 12 in EU and EU reference countries and the ISS7 in the US. Regardless of where a participant was from, all assessments were the same. The UAS7 score is a composite score containing both the HSS7 and the ISS7. This allowed a global assessment of the two key components of urticaria: hives and itch. […] The UAS is a validated PRO measure. […] The daily UAS scores range from 0 to 6 point/day. […] Patients were to complete the UAS using the e-diary. […] The following secondary endpoints were to be analyzed using the same approach as for the primary endpoint: • Change from baseline in UAS7 at Week 4 • Change from baseline in UAS7 at Week 12 (for US and US reference countries) • Change from baseline in ISS7 at Week 12 (except US and US reference countries) • Change from baseline in HSS7 at Week 12

[1] = Week 2, 400 mg BID, Omalizumab-Naïve
[2] = Week 2, 400 mg BID, Prior Omalizumab Use
[3] = Week 2, 400 mg QPM, Omalizumab-Naïve
[4] = Week 2, 400 mg QPM, Prior Omalizumab Use
[5] = Week 2, 400 mg TID, Omalizumab-Naïve
[6] = Week 2, 400 mg TID, Prior Omalizumab Use
[7] = Week 3, 400 mg BID, Omalizumab-Naïve
[8] = Week 3, 400 mg BID, Prior Omalizumab Use
[9] = Week 3, 400 mg QPM, Omalizumab-Naïve
[10] = Week 3, 400 mg QPM, Prior Omalizumab Use
[11] = Week 3, 400 mg TID, Omalizumab-Naïve
[12] = Week 3, 400 mg TID, Prior Omalizumab Use
[13] = Week 4, 400 mg BID, Omalizumab-Naïve
[14] = Week 4, 400 mg BID, Prior Omalizumab Use
[15] = Week 4, 400 mg QPM, Omalizumab-Naïve
[16] = Week 4, 400 mg QPM, Prior Omalizumab Use
[17] = Week 4, 400 mg TID, Omalizumab-Naïve

With `CC(C)(C=C(C#N)C(=O)N1CCC[C@@H](n2nc(-c3ccc(Oc4ccccc4)cc3F)c3c(N)ncnc32)C1)N1CCN(C2COC2)CC1` [rilzabrutinib, (R)-2-[3-[4-amino-3-(2-fluoro-4-phenoxy-phenyl)pyrazolo[3,4-d]pyrimidin-1-yl]piperidine-1-carbonyl]-4-methyl-4-[4-(oxetan-3-yl)piperazin-1-yl]pent-2-enenitrile] the “ISS7 Percent change from baseline Mean (SD)” value (shortened to “ISS7 Percent change … (SD)”) [1] was −34.40 (31.27) %, the “ISS7 Percent change from baseline Median” value [1] was −25.06% and the “ISS7 Change from baseline Mean (SD)” value [2] was −7.00 (7.04). The “ISS7 Change from baseline Median” value [2] was −5.50, the “ISS7 Mean (SD)” value [2] was 10.83 (6.85) and the “ISS7 Median” value [2] was 13.50. The “ISS7 Percent change … (SD)” value [2] was −38.76 (40.94) %, the “ISS7 Percent change from baseline Median” value [2] was −28.17% and the “ISS7 Change from baseline Mean (SD)” value [3] was −3.84 (4.75). The “ISS7 Change from baseline Median” value [3] was −3.00, the “ISS7 Median” value [3] was 12.00 and the “ISS7 Percent change … (SD)” value [3] was −22.08 (27.52) %. For the same compound, the “ISS7 Percent change from baseline Median” value [3] was −17.11%, the “ISS7 Change from baseline Mean (SD)” value [4] was −12.00 (NC) and the “ISS7 Change from baseline Median” value [4] was −12.00. The “ISS7 Mean (SD)” value [4] was 9.00 (NC), the “ISS7 Median” value [4] was 9.00 and the “ISS7 Percent change … (SD)” value [4] was −57.14 (NC) %. The “ISS7 Percent change from baseline Median” value [4] was −57.14%, the “ISS7 Change from baseline Mean (SD)” value [5] was −7.29 (6.09) and the “ISS7 Change from baseline Median” value [5] was −7.00. The “ISS7 Mean (SD)” value [5] was 8.40 (5.82), the “ISS7 Median” value [5] was 8.00 and the “ISS7 Percent change … (SD)” value [5] was −46.12 (36.57) %. The “ISS7 Percent change from baseline Median” value [5] was −46.89%, the “ISS7 Mean (SD)” value [6] was 5.50 (6.95) and the “ISS7 Median” value [6] was 4.00. For the same compound, the “ISS7 Percent change … (SD)” value [6] was −69.74 (33.53) %, the “ISS7 Percent change from baseline Median” value [6] was −77.08% and the “ISS7 Change from baseline Mean (SD)” value [7] was −6.29 (5.74). For the same compound, the “ISS7 Change from baseline Median” value [7] was 5.00, the “ISS7 Mean (SD)” value [7] was 9.16 (6.09) and the “ISS7 Median” value [7] was 9.00. The “ISS7 Percent change … (SD)” value [7] was −40.77 (35.75) %, the “ISS7 Percent change from baseline Median” value [7] was −26.67% and the “ISS7 Change from baseline Mean (SD)” value [8] was −8.31 (8.28). The “ISS7 Change from baseline Median” value [8] was −9.00, the “ISS7 Mean (SD)” value [8] was 9.53 (7.26) and the “ISS7 Percent change … (SD)” value [8] was −44.35 (43.62) %. For the same compound, the “ISS7 Percent change from baseline Median” value [8] was −47.22%, the “ISS7 Change from baseline Mean (SD)” value [9] was −4.77 (4.84) and the “ISS7 Change from baseline Median” value [9] was −3.67. The “ISS7 Mean (SD)” value [9] was 11.60 (4.68), the “ISS7 Percent change … (SD)” value [9] was −27.79 (26.72) % and the “ISS7 Percent change from baseline Median” value [9] was −23.81%. The “ISS7 Change from baseline Mean (SD)” value [10] was −12.00 (NC), the “ISS7 Change from baseline Median” value [10] was −12.00 and the “ISS7 Mean (SD)” value [10] was 9.00 (NC). For the same compound, the “ISS7 Median” value [10] was 9.00, the “ISS7 Percent change … (SD)” value [10] was −57.14 (NC) % and the “ISS7 Percent change from baseline Median” value [10] was −57.14%. For the same compound, the “ISS7 Change from baseline Mean (SD)” value [11] was −7.34 (6.48), the “ISS7 Change from baseline Median” value [11] was −7.00 and the “ISS7 Mean (SD)” value [11] was 8.34 (5.42). For the same compound, the “ISS7 Median” value [11] was 8.40, the “ISS7 Percent change … (SD)” value [11] was −49.02 (33.06) % and the “ISS7 Percent change from baseline Median” value [11] was −48.53%. For the same compound, the “ISS7 Mean (SD)” value [12] was 5.50 (5.50), the “ISS7 Median” value [12] was 5.00 and the “ISS7 Percent change … (SD)” value [12] was −66.98 (26.87) %. The “ISS7 Percent change from baseline Median” value [12] was −64.58%, the “ISS7 Change from baseline Mean (SD)” value [13] was −6.94 (6.13) and the “ISS7 Change from baseline Median” value [13] was −5.83. The “ISS7 Mean (SD)” value [13] was 8.32 (6.02), the “ISS7 Median” value [13] was 7.00 and the “ISS7 Percent change … (SD)” value [13] was −44.87 (37.61) %. For the same compound, the “ISS7 Percent change from baseline Median” value [13] was −41.67%, the “ISS7 Change from baseline Mean (SD)” value [14] was −11.80 (8.35) and the “ISS7 Change from baseline Median” value [14] was −14.00. The “ISS7 Mean (SD)” value [14] was 6.80 (8.53), the “ISS7 Median” value [14] was 1.00 and the “ISS7 Percent change … (SD)” value [14] was −64.22 (45.05) %. For the same compound, the “ISS7 Percent change from baseline Median” value [14] was −93.33%, the “ISS7 Change from baseline Mean (SD)” value [15] was −4.99 (5.13) and the “ISS7 Change from baseline Median” value [15] was −4.00. The “ISS7 Mean (SD)” value [15] was 11.39 (4.79), the “ISS7 Percent change … (SD)” value [15] was −28.81 (27.96) % and the “ISS7 Percent change from baseline Median” value [15] was −23.81%. For the same compound, the “ISS7 Change from baseline Mean (SD)” value [16] was −13.00 (NC), the “ISS7 Change from baseline Median” value [16] was −13.00 and the “ISS7 Mean (SD)” value [16] was 8.00 (NC). For the same compound, the “ISS7 Median” value [16] was 8.00, the “ISS7 Percent change … (SD)” value [16] was −61.90 (NC) % and the “ISS7 Percent change from baseline Median” value [16] was −61.90%. The “ISS7 Change from baseline Mean (SD)” value [17] was −8.30 (5.13), the “ISS7 Change from baseline Median” value [17] was −8.00 and the “ISS7 Mean (SD)” value [17] was 7.79 (5.03). The “ISS7 Median” value [17] was 7.50, the “ISS7 Percent change … (SD)” value [17] was −51.09 (29.31) % and the “ISS7 Percent change from baseline Median” value [17] was −50.00%. The “ISS7 Change from baseline Mean (SD)” value (Week 4, 400 mg TID, Prior Omalizumab Use) was −10.83 (7.32).
